Series [1] can be described thus: Protein binding assay (HT dialysis), rat brain homogenate. In kind it is in vitro ADME. As to conditions: pH 7.4, Mean ± SEM, n = 3, read-out: Fu Brain. On the procedure:
(§1) Unbound fractions of test compounds in plasma, brain homogenate and liver microsomes were determined using high-throughput dialysis (HT dialysis). Briefly, dialysis membranes were soaked in deionized water for 20 minutes and then in deionized water with 30% ethanol for 15 minutes and finally in phosphate buffer until use. Membranes were rinsed in phosphate buffer before assembling. The membranes were layered between teflon bars of dialysis assembly. Stock solutions of test compound/comparative compound were prepared at 10 mM in DMSO, diluted to 1 mM in acetonitrile and further diluted to 100 μM in mixture of water and acetonitrile (1:1 v/v). Human plasma (pool of 3) was prepared from human blood (3 donors) by centrifuging at 4000 rpm for 10 min at 4° C. Rat and dog blood were obtained on the day of the study and centrifuged to obtain plasma. Rat brains were isolated, cleaned and homogenized with 2 volumes of buffer (3 fold dilution). Liver microsomes were prepared at 0.5 mg/mL in phosphate buffer (100 mM, pH 7.4). The dialysate chambers were loaded with 150 μL of 100 mM phosphate buffer (pH 7.4) in triplicates. The matrix chambers were loaded with 150 μL of the plasma or brain homogenate or microsomal suspension spiked with test compound/comparative compound at a final concentration of 1 μM. 50 μL of the sample was removed from both the chambers at 0 h. The plate was sealed and incubated at 37° C. for 6 h at 100 rpm. After 6 h, 50 μL of the sample was removed from both the chambers. Equal volumes of buffer or human plasma/microsomal suspension were added to the plasma/microsomal and buffer samples respectively to create identical sample matrices for analysis. The samples were precipitated with 150 μL of acetonitrile containing fluoxetine as an internal standard. All the samples were centrifuged at 10000 rpm for 10 minutes at 4° C.

Series [2] is described as follows: Protein binding assay (HT dialysis), dog plasma. The format is in vitro ADME. The note with it: pH 7.4, Mean ± SEM, n = 3, read-out: Fu Plasma (converted). As for the experimental part: as §1
The target of series [3] is T1, human Muscarinic M1 receptor (Homo sapiens, UniProt P11229).
T1 sequence (P11229 1-460): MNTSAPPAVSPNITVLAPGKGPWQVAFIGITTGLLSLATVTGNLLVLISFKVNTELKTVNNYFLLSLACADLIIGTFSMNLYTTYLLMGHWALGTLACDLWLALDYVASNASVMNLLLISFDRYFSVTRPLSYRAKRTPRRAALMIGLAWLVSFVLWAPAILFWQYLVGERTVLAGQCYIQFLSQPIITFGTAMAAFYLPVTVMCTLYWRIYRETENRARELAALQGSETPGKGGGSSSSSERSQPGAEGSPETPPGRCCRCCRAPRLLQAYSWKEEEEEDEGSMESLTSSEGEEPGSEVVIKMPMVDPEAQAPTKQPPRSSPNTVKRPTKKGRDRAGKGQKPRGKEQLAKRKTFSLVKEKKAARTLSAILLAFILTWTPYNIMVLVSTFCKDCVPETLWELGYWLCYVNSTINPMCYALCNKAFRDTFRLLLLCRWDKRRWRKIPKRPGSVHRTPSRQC
Nature of the series: Allosteric potency EC50 for muscarinic M1 receptor, CHO pCRE-Luc reporter cell assay. The format is cell-based. As to conditions: in presence of EC20 of acetylcholine; CHO cells, luciferase reporter, 4 h. As for the experimental part: A stable CHO cell line expressing recombinant human Muscarinic M1 receptor and pCRE-Luc reporter system was used for cell-based assay. The assay offers a non-radioactive based approach to determine binding of a compound to GPCRs. In this specific assay, the level of intracellular cyclic AMP which is modulated by activation or inhibition of the receptor is measured. The recombinant cells harbor luciferase reporter gene under the control of cAMP response element.
The above cells were grown in 96 well clear bottom white plates in Hams F12 medium containing 10% fetal bovine serum (FBS). Prior to the addition of compounds or standard agonist, cells were serum starved overnight. Increasing concentrations of test compounds were added along with EC20 of acetylcholine in OptiMEM medium to the cells. The incubation was continued at 37° C. in CO2 incubator for 4 h. Medium was removed and cells were washed with phosphate buffered saline. The cells were lysed and luciferase activity was measured in a Luminometer. Luminescence units were plotted against the compound concentrations using Graphpad software. EC50 values of the compounds were defined as the concentration required in stimulating the luciferase activity by 50% in presence of EC20 of acetylcholine.
(In a reporter assay the amount or activity of a reporter protein is the signal.)

Series [4] in a line: Protein binding assay (HT dialysis), human plasma. As to conditions: pH 7.4, Mean ± SEM, n = 3, read-out: Fu Plasma (converted). In kind it is in vitro ADME. On the procedure: as §1
Series [5] is described as follows: Object recognition task model. The format is in vivo, Male Wistar rats. As to conditions: rat, 3 mg/kg, p.o.; for Exploration time mean ± S.E.M, Familiar object / Exploration time mean ± S.E.M, Novel object: choice trial 24 h after T1. As for the experimental part:
The cognition enhancing properties of compounds of this invention were estimated by using this model.
Male Wistar rats (8-10 weeks old) were used as experimental animals. Four animals were housed in each cage. Animals were kept on 20% food deprivation from a day prior to experimentation. Water was provided ad libitum throughout the experiment. Animals were maintained on a 12 h light/dark cycle in temperature and humidity controlled room. The experiment was carried out in an circular made up of acrylic. Rats were habituated to individual arenas for up to 1 h in the absence of any objects on day 1.
One group of 12 rats received vehicle and another set of animals received compound of the formula (I), before the familiar (T1) and choice (T2) trials. During the familiarization phase, (T1), the rats were placed individually in the arena for 3 minutes, in which two identical objects (a1 and a2) were positioned 10 cm from the wall. 24 h after T1, trial for long-term memory test was performed. The same rats were placed in the same arena as they were placed in T1 trial. During the choice phase (T2) rats were allowed to explore the arena for 3 minutes in presence of a copy of familiar object (a3) and one novel object (b). During the T1 and T2 trial, explorations of each object (defined as sniffing, licking, chewing or having moving vibrissae whilst directing the nose towards the object at a distance of less than 1 cm) were recorded using stopwatch. • T1 is the total time spent exploring the familiar objects (a1+a2). • T2 is the total time spent exploring the familiar object and novel object (a3+b).
The object recognition test was performed as described by Ennaceur, A., Delacour, J., 1988, A new one-trial test for neurobiological studies of memory in rats—Behavioural data, Behav. Brain Res., 31, 47-59.

Structures are written as SMILES.

As to `COc1ccc(Cc2cc3c(nc2C)CN([C@H]2CCCC[C@@H]2O)C3=O)cc1` [Example 6, 6-(1S,2S-2-Hydroxycyclohexyl)-2-methyl-3-(4-methoxybenzyl)-6,7-dihydropyrrolo[3,4-b]pyridin-5-one], the fraction unbound at 6 h, 1 μM in series [1] was 0.123 ± 0.009. In addition, the fraction unbound at 6 h, 1 μM in series [2] is 0.115. In series [3], the EC50 (usually the concentration giving half of the maximal effect) came to 954 nM. In series [4], the fraction unbound at 6 h, 1 μM is 0.124. Moreover, in series [5], the Inference entry is listed as “Active”; the “Exploration time mean ± S.E.M, Familiar object” value turned out to be 7.27 ± 1.31 s; the “Exploration time mean ± S.E.M, Novel object” value turned out to be 15.9 ± 2.47 s.

In the case of `COc1cccc(Cc2cc3c(nc2C)CN([C@H]2CCCC[C@@H]2O)C3=O)c1` [Example 38, 6-(1S,2S-2-Hydroxycyclohexyl)-2-methyl-3-(3-methoxybenzyl)-6,7-dihydropyrrolo[3,4-b]pyridin-5-one], the fraction unbound at 6 h, 1 μM in series [1] was 0.084 ± 0.002. Further, in series [2], the fraction unbound at 6 h, 1 μM was 0.116. For the same compound, the EC50 in series [3] amounted to 2280 nM. The fraction unbound at 6 h, 1 μM in series [4] was 0.192. Besides, in series [5], the Inference result is “Active”; the “Exploration time mean ± S.E.M, Familiar object” value was determined as 10.12 ± 2.12 s; the “Exploration time mean ± S.E.M, Novel object” value was determined as 19.89 ± 3.32 s.

Values taken from US12156871B2, “Substituted azacycles as muscarinic M1 receptor positive allosteric modulators” (SUVEN LIFE SCIENCES LIMITED, priority 2017, dated 2024).
